# Laboratory results taken from patent US8188270B2, “Polymorphous form of 5-chloro-N-({(5S)-2-oxo-3[4-(3-oxo-4-morpholinyl)-phenyl]-1,3-oxazolidine-5-yl}-methyl)-2-thiophene carboxamide” (Bayer Schering Pharma Aktiengesellschaft, priority 2005, dated 2012).
# Experiment: Solubility comparison of crystal modifications of the compound of the formula (I)
# Type: physicochemical
# Conditions: modification II versus known modification (modification I)
compound,measurement,value
"O=C(NC[C@H]1CN(c2ccc(N3CCOCC3=O)cc2)C(=O)O1)c1ccc(Cl)s1 [modification II, 5-chloro-N-({(5S)-2-oxo-3-[4-(3-oxo-4-morpholinyl)-phenyl]-1,3-oxazolidin-5-yl}-methyl)-2-thiophenecarboxamide]",solubility in comparison to the known modification,higher solubility
